Patent US6368580B1, “Composition suitable as food integrator and for the treatment of intestinal disorders and alterations of the bacterial flora” (Giuliani S.p.A, priority 1999, dated 2002)
“Also recorded” adds a separate entry of the source.

Columns and labels:
Bacillus coagulans [1] = test: Lactic acid (L+) production in Bacillus coagulans broth culture; format: cell-based; details: 24-hour broth culture to which lysine was added; higher than blank controls or other amino acids
Bacillus coagulans [2] = test: Growth of Bacillus coagulans in Sabouraud's broth with added nutrient, optical density by biophotometer; format: cell-based; details: for increase in growth of Bacillus coagulans (optical density A630), preliminary evaluations of amino acids: aspartic acid, proline, lysine, tryptophan compared, biophotometer
Protocol: Consequently, microbiological tests have been conducted by adding a number of amino acids (particularly aspartic acid, lysine, proline) to the culture medium specific for Lactobacillus. […] Evaluation of the growth of Bacillus coagulans was performed using and agar/Sabouraud's broth to which 0.5% of yeast extract was added. At this point, an attempt was made to determine which of the various amino acid components present in the yeast (aspartic acid, proline, lysine, tryptophan), and in what concentrations, were able to favor more vigorous development of the microorganism. The increase in growth was evaluated by biophotometer which recorded the optical density (A630).
In special sterilized cuvettes for biophotometry, broth cultures were prepared, with the addition to the base culture medium (10 ml of Sabouraud's broth) of: […]
One cuvette containing Sabouraud's broth alone was used as control. Each of the four broth cultures was subsequently inoculated with 100 μl of a dilution of a broth culture (overnight incubation) of Bacillus coagulans made starting from the lyophilized powder (final concentration of 10^4 cfu/ml).
The growth of the culture was evaluated in terms of optical density, using a biophotometer, which is capable of determining the degree of development on the basis of the increase in turbidity. The curvettes thus prepared were set inside the compartment of the instrument in the presence of a magnetic stirrer that was able to keep the culture in uniform suspension, a condition which enables a proper reading of the turbidity of the culture medium to be made.
The optical density appears on the ordinate, the values proportional to the number of bacteria produced. The time is given on the abscissa. The four curves shown on the graph identify the behavior, respectively, of lysine (at a concentration of 0.025 mg/ml), yeast (5 mg/ml), proline (0.01 mg/ml), and the Sabouraud's culture medium reference standard.

Structure (SMILES)	lactic acid (L+) production (Bacillus coagulans [1]) [mg/L]	growth of the Lactobacillus cells and formation of lactic acid (L+) (Bacillus coagulans [2]; amino acid added to the culture medium, lysine at concentrations of the order of 0.1-1 mg/ml)	increase in growth of Bacillus coagulans (optical density A630), preliminary evaluations of amino acids (Bacillus coagulans [2])	growth of Bacillus coagulans (optical density, growth curve) (Bacillus coagulans [2]; lysine 0.025 mg/ml in Sabouraud's broth, overnight incubation at 37° C., compared with proline 0.01 mg/ml, yeast 5 mg/ml, broth alone)
NCCCC[C@H](N)C(=O)O [lysine]	486	enhanced the growth of the Lactobacillus cells and the formation of lactic acid (L^+)	best results	most effective nutrient; also recorded: significantly increases the growth curve, reducing the latency phase and increasing the number of cells
O=C(O)[C@@H]1CCCN1 [proline, reference compound]			best results	
